IC50 data for 13 molecules are collected here from patent US20240067655A1 (NEURON23, INC., priority 2020, published 2024).

T1 sequence (Q5S007 1879-2138 limits assumed): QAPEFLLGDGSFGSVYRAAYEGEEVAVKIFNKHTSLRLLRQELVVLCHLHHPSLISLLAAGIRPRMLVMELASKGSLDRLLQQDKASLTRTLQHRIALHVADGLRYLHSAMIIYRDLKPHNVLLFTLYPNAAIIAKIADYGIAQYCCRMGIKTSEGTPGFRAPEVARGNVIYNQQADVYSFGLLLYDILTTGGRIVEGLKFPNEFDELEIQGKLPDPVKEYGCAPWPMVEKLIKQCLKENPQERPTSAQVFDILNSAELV

The test addresses T1, wt human LRRK2, catalytic site (Homo sapiens, UniProt Q5S007).
T1 construct: wt human LRRK2, catalytic site; purchased ThermoFisher/USA
Briefly: TR-FRET LanthaScreen Tb Kinase Activity Assay (Example 71). It counts as biochemical. The following applies: compounds of Table 4, 38 uM ATP, method names only wt human LRRK2, read-out: IC50, Inhibitory Activity Toward LRRK2 (Wt) and LRRK2 (G2019). As to the method: The compounds in Table 4 were tested for their inhibitory effect on LRRK2 kinases according to the following procedures.
The basic protocol for TR-FRET LanthaScreen Tb Kinase Activity Assay inhibitor studies were performed as follows. LanthaScreen Kinase Activity Assays (ThermoFisher/USA) to evaluate inhibitors were performed by addition of 100 nl of test compound in corresponding DMSO dilutions/5 μl of kinase/fluorescein-ERM(LRRKtide) peptide mixture, 5 μl of ATP into 384 well small volume plates. After incubation for 120 minutes at room temperature, the detection reagents containing Tb-anti-pLRRKtide antibody were added to monitor phosphrylation level of peptide. Then, after 60 min minutes incubation at room temperature plates were read in Envision. Data analysis of emission ratios was according to LanthaScreen Tb Kinase Activity Assay protocol.
Kinase and assay components were adjusted to final concentrations according to the kit protocol. For LRRK2: 2 nM wt human LRRK2, catalytic site, catalytic site (ThermoFisher/USA), 400 nM peptide, 38 uM ATP in 1× Kinase Buffer A.
Basic protocol for TR-FRET LanthaScreen Tb Kinase Activity Assay inhibitor studies involved two steps:
Enzymatic step: Addition of 100 nl of test compound in corresponding DMSO dilutions, 5 μl of kinase/substrate mixture, 5 μl of ATP into 384 well small volume plates. Incubation for 120 minutes at room temperature.
Detection step: Addition of 10 μl EDTA & antibody, read plate after 60 minutes. Data analysis of emission ratios according to KinEASE assay protocol.
A general note: In TR-FRET formats the signal depends on donor and acceptor labels being close together.
As usually defined, the IC50 is the midpoint of a concentration-inhibition curve. Regarding `Cc1n[nH]c2c1N=C(c1c(F)cccc1F)N1CCCn3ncc-2c31` [Compound 370, 9-(2,6-difluorophenyl)-1-methyl-3,6,7,8-tetrahydro-2,3,5,5a,8a,10-hexaazabenzo[cd]cyclopenta[h]azulene], the IC50 is less than 10 nM. In the case of `Fc1cccc(F)c1C1=Nc2c(Cl)n[nH]c2-c2cnn3c2N1CCC3` [Compound 371, 5-chloro-8-(2,6-difluorophenyl)-3,4,7,9,13,14-hexazatetracyclo[7.6.1.02,6.013,16]hexadeca-1(16),2(6),4,7,14-pentaene], the IC50 was less than 10 nM. Take `Cc1n[nH]c2c1N=C(c1c(F)cccc1F)N1CCn3ncc-2c31` [Compound 372, 8-(2,6-difluorophenyl)-5-methyl-3,4,7,9,12,13-hexazatetrahydro[7.5.1.02,6.012,15]pentadeca-1(15),2,5,7,13-pentaene]: the 50% inhibitory concentration (IC50) is less than 10 nM. Under `Fc1cccc(F)c1C1=Nc2cn[nH]c2-c2cnn3c2N1CC3` [Compound 373, 3-(2,6-difluorophenyl)-2,7-dihydro-1H-2a,4,6,7,9,9a-hexaazadicyclopenta[cd,f]azulene] stands less than 10 nM. To `Cc1nn2c3c1CCCN3C(c1c(F)cccc1F)=Nc1cn[nH]c1-2` [Compound 374, 8-(2,6-difluorophenyl)-14-methyl-1,3,4,7,9,15-hexazatetracyclo[7.6.1.02,6.013,16]hexadeca-2(6),4,7,13(16),14-pentaene] belongs 100 to 1000 nM; to `Fc1cccc(F)c1C1=Nc2c(Cl)n[nH]c2-c2cnn3c2N1CC3` [Compound 375, 5-chloro-3-(2,6-difluorophenyl)-2,7-dihydro-1H-2a,4,6,7,9,9a-hexaazadicyclopenta[cd,f]azulene], less than 10 nM. Under `Fc1cncc(F)c1C1=Nc2cn[nH]c2-c2cnn3c2N1CCC3` [Compound 376, 8-(3,5-difluoro-4-pyridyl)-3,4,7,9,13,14-hexazatetracyclo[7.6.1.02,6.013,16]hexadeca-1(16),2(6),4,7,14-pentaene] stands 10 to 100 nM. Turning to `Fc1cccc(F)c1C1=Nc2cn[nH]c2-c2cnn3c2N1CC1(CC1)C3` [Compound 377, 9-(2,6-difluorophenyl)-6,8-dihydro-3H-spiro[2,3,5,5a,8a,10-hexaazabenzo[cd]cyclopenta[h]azulene-7,1′-cyclopropane]], the half-maximal inhibitory concentration (IC50) was 100 to 1000 nM.

As for `Cc1cccc(C)c1C1=Nc2cn[nH]c2-c2cnn3c2N1CCC3` [Compound 379, 8-(2,6-dimethylphenyl)-3,4,7,9,13,14-hexazatetracyclo[7.6.1.02,6.013,16]hexadeca-1(16),2(6),4,7,14-pentaene], the 50% inhibitory concentration (IC50) fell in the range of 100 to 1000 nM. To `Fc1cccc(C(F)(F)F)c1C1=Nc2cn[nH]c2-c2cnn3c2N1CCC3` [Compound 380, 8-[2-fluoro-6-(trifluoromethyl)phenyl]-3,4,7,9,13,14-hexazatetracyclo[7.6.1.02,6.013,16]hexadeca-1(16),2(6),4,7,14-pentaene] belongs 10 to 100 nM; to `Fc1cccc(C(F)F)c1C1=Nc2cn[nH]c2-c2cnn3c2N1CCC3` [Compound 381, 8-[2-(difluoromethyl)-6-fluoro-phenyl]-3,4,7,9,13,14-hexazatetracyclo[7.6.1.02,6.013,16]hexadeca-1(16),2(6),4,7,14-pentaene], 10 to 100 nM. For `Cc1cccc(F)c1C1=Nc2cn[nH]c2-c2cnn3c2N1CC3` [Compound 382, 8-(2-fluoro-6-methyl-phenyl)-3,4,7,9,12,13-hexazatetracyclo[7.5.1.02,6.012,15]pentadeca-1(15),2(6),4,7,13-pentaene], the IC50 is less than 10 nM.

In the case of `Fc1cccc(Cl)c1C1=Nc2cn[nH]c2-c2cnn3c2N1CC3` [Compound 383, 8-(2-chloro-6-fluoro-phenyl)-3,4,7,9,12,13-hexazatetracyclo[7.5.1.02,6.012,15]pentadec-1(15),2(6),4,7,13-pentaen], the concentration for half-maximal inhibition (IC50) is less than 10 nM.
